Experimental data from patent publication US7354737B2, “Biomolecule transduction motif Sim-2-BTM and the use thereof” (ForHumanTech Co., Ltd., priority 2002, dated 2008).

Key:
[1] = system: HUVEC, HeLa, 293 and Jurkat cells; test: Transduction of fusion protein across cell membrane, β-galactosidase staining and microscopy; type: cell-based; conditions: 0.5 μM, 30 min, 37° C., HeLa, 293, Jurkat cells
Experimental: HUVEC (ATCC:CRL-1730) (2×10^5), HeLa (ATCC:CCL-2) (2×10^5), and 293 (ATCC:CRL-1573) (2×10^5), which were incubated in 10% FBS (Fetal Bovine Serum) of DMEM, were respectively transferred to Lab-tek II chamber slides. Jurkat cells (ATCC:CRL-10915) (2×10^5) incubated in 10% FBS RPMI were transferred to poly-L-lysin coated slide. Each of the slides was treated with the purified 0.5 μM of Sim-2-β-galactosidase for 30 min at 37° C. in 5% CO2 incubator. And the supernatants were removed from the slides. The incubation mixtures were washed using ice-cold PBS four times and then were solidified with 2% formaldehyde solution for 10 min. After removing the solidified solutions, the mixtures were washed again using ice-cold PBS four times. Subsequently, the respective mixtures were treated with 700 μl of β-galactosidase staining solution (Roche. Co.) for 45 min at 37° C. in 5% CO2 incubator. Following the staining, the mixtures were washed with ice-cold PBS four times after removing the supernatants. Next, the mixtures were mounted with 70% glycerol on the microscope slides.

Jurkat T cells = test: Transduction of insulin fusion proteins, detected using mAb to insulin; type: cell-based; conditions: detected with mAb to insulin
Text: A fusion protein of Sim-2 BTM and biologically active functional regulatory protein, which was expressed and purified from bacteria, was reformed so as to have natural folding structure and functions. Specifically, the fusion protein isolated and purified from bacteria was transferred again into CHO (Chinese hamster ovary) cells, and then the fusion protein, which had complete folding structure and functions found in natural state, was isolated and purified. As for purified 2 (two) types of fusion proteins, biological activity regulating capabilities were examined. For this examination, an expression vector pSim-2-insulin was designed in order to prepare fusion protein between Sim-2 BTM and human insulin. In order to make this expression vector, a 5′ primer of SEQ. ID No.:17 comprising nucleic acid sequence of Xba I restriction enzyme, nucleic acid sequence of Sim-2 BTM and N-terminal nucleic acid sequence of human insulin, and a 3′ primer of SEQ. ID No.:18 comprising nucleic acid sequence of Hind m and C-terminal nucleic acid sequence of human insulin were prepared. Then, PCR amplification was carried out using human pancreas beta cells prepared in our laboratory, as a template, and using the primers above mentioned. […] Following the treatment, the transduction level of insulin into the cells was detected using mAb to the insulin and was compared.

[2] = system: Streptozotocin-Induced diabetic mice; test: Blood glucose level lowering in Streptozotocin-Induced diabetic mice; type: in vivo; conditions: IP injection (1-10 mM)
Experimental: Blood glucose level lowering was examined using Sim-2-insulin and Sim-2-insulin-PR in the Example 13 with Streptozotocin-Induced diabetic mice. After 3 (three) days of abstinence, STZ (Sigma Chemical Co, St Louis, USA) (60 mg/kg) were […]. Insulin dependent diabetic mice were defined having 20 mmol/L or more blood glucose level together with other diabetic syndrome such as polyurea etc. All the in vivo studies were carried out after 2 weeks from the induction of diabetes. Recombinant insulin alone, Sim-2-insulin and Sim-2-insulin-PR in the Example 13 were, respectively, administered to the mice by IP injection (1-10 mM), and the blood glucose levels in the mice were monitored. In order to analyze the level of blood glucose, about 0.2 ml of blood was collected from each of the mice after anesthetizing them, and then the blood was subject to centrifuge at 13,000 rpm for 3 min. Next, about […] of serum was added to 1.5 ml of glucose kit agent (BiosystemSA, Barcelona, Spain) and the mixture was incubated at 37° C. for 10 min in water-bath. The level of blood glucose was detected with blood glucose analyzer (Quik-Lab, Ames, Miles Inc. Elkart, Ind., USA).

“β-gal: β-galactosidase reporter protein not fused to Sim-2” was tested, and the “transduction across the cell membranes (β-galactosidase staining)” value [1] was “not transduced at all”.
With “Recombinant insulin: recombinant insulin not fused to Sim-2 BTM” the “transduction level of insulin into Jurkat T cells” value (Jurkat T cells) was “almost none”, the “blood glucose level, After administration” value ([2]; after administration) was 2320 and the “blood glucose level, Before administration” value ([2]; before administration) was 5600. The “lowering of blood glucose level” value ([2]; from Table 3) was 50%.
